From ChEMBL document CHEMBL1125599, “Cholinergic activity of acetylenic imidazoles and related compounds” (J Med Chem, 1991)

What was measured:
Mus musculus [1] = assay: ED50 value determined as oxotremorine antagonism by measuring salivation in mice (in vivo); format: functional
Mus musculus [2] = assay: ED50 value determined as oxotremorine antagonism by measuring tremors in mice (in vivo); format: functional
Mus musculus [3] = assay: ED50 value as cholinergic agonism by measuring lacrimation in mice (in vivo); format: functional
Mus musculus [4] = assay: ED50 value as cholinergic agonist by measuring salivation in mice (in vivo); format: functional
Mus musculus [5] = assay: ED50 value as cholinergic agonist by measuring tremors in mice (in vivo); format: functional
Mus musculus [6] = assay: ED50 value determined as oxotremorine antagonism by measuring lacrimation in mice (in vivo); format: functional
[7] = biological target: Muscarinic acetylcholine receptor; assay: Binding affinity to muscarinic acetylcholine receptor was determined in presence of [3H]OXO-M radioligand (in vitro); format: protein assay
[8] = biological target: Muscarinic acetylcholine receptor; assay: Binding affinity to muscarinic acetylcholine receptor was determined in presence of [3H]QNB radioligand (in vitro); format: protein assay
[9] = biological target: Muscarinic acetylcholine receptor (Rattus norvegicus) (UniProt P08482+P08483+P08485+P08911+P10980); assay: Ratio of Ki value for QNB to that of Ki value for Oxo-M.; format: protein assay

Ki [7]	Ki [8]	Ki ratio [9]	SMILES	ED50 (Mus musculus [1])	ED50 (Mus musculus [2])	ED50 (Mus musculus [3])	ED50 (Mus musculus [4])	ED50 (Mus musculus [5])	ED50 (Mus musculus [6])
1.5 nM	64 nM	43	COC(=O)N(C)C(C)C#CCN1CCCC1 (stereo not drawn)	> 100 mg/kg	> 100 mg/kg	20.9 mg/kg	14.2 mg/kg	9.7 mg/kg	> 100 mg/kg
3.2 nM	64 nM	20	Cc1cncn1CC#CCN1CCCC1=O	> 100 mg/kg	> 100 mg/kg	> 100 mg/kg	> 100 mg/kg	2.5 mg/kg	0.8 mg/kg
191 nM	6825 nM	36	COC(=O)NCC#CCn1cncc1C	80 mg/kg	> 100 mg/kg	> 100 mg/kg	> 100 mg/kg	> 100 mg/kg	66 mg/kg
36 nM	1001 nM	28	COC(=O)N(C)CC#CCn1cncc1C	5.4 mg/kg	> 100 mg/kg	> 100 mg/kg	–	4.5 mg/kg	3 mg/kg
39 nM	614 nM	16	Cc1cncn1CC#CCn1ccn(C)c1=O	22 mg/kg	> 100 mg/kg	> 100 mg/kg	–	100 mg/kg	8 mg/kg
156 nM	568 nM	3.6	CCOC(=O)N(C)C(C)C#CCn1cncc1C (stereo not drawn)	17.3 mg/kg	30 mg/kg	> 100 mg/kg	> 100 mg/kg	> 100 mg/kg	9.7 mg/kg
22 nM	110 nM	5	CCOC(=O)N(C)C(C)C#CCN1CCCC1 (stereo not drawn)	> 100 mg/kg	> 100 mg/kg	> 100 mg/kg	> 100 mg/kg	> 100 mg/kg	97 mg/kg
5.22 nM	16.8 nM	3.2	Cc1cncn1CC#CC(C)N1CCCC1=O (stereo not drawn)	2.5 mg/kg	25.4 mg/kg	> 100 mg/kg	> 100 mg/kg	> 100 mg/kg	0.45 mg/kg

The next lines start with the compound.

SMILES	Ki [7]	Ki [8]	Ki ratio [9]	ED50 (Mus musculus [1])	ED50 (Mus musculus [2])	ED50 (Mus musculus [3])	ED50 (Mus musculus [4])	ED50 (Mus musculus [5])	ED50 (Mus musculus [6])
CCOC(=O)N(C)CC#CCN1CCCC1	65 nM	4219 nM	65	> 100 mg/kg	> 100 mg/kg	> 100 mg/kg	> 100 mg/kg	66 mg/kg	> 100 mg/kg
CC(C#CCN(C)C)N1CCCC1=O (stereo not drawn)	26.4 nM	1702 nM	65	> 100 mg/kg	> 100 mg/kg	6.6 mg/kg	6.6 mg/kg	100 mg/kg	> 100 mg/kg
CN(C)C(=O)N(C)CC#CCN1CCCC1	3.6 nM	140 nM	39	> 10 mg/kg	> 10 mg/kg	> 10 mg/kg	> 10 mg/kg	1.2 mg/kg	6.6 mg/kg
CC(C#CCN1CCCC1)N1CCCC1=O (stereo not drawn)	1.1 nM	14 nM	13	0.55 mg/kg	3 mg/kg	> 30 mg/kg	> 30 mg/kg	> 30 mg/kg	0.55 mg/kg
CC1CCC(=O)N1CC#CCN(C)C (stereo not drawn)	7.1 nM	690 nM	97	> 100 mg/kg	> 100 mg/kg	3.7 mg/kg	3 mg/kg	1.7 mg/kg	> 100 mg/kg
O=C1OCCN1CC#CCN1CCCC1	8.9 nM	1362 nM	153	> 10 mg/kg	> 10 mg/kg	> 10 mg/kg	5.4 mg/kg	3.7 mg/kg	> 10 mg/kg
CC1CCC(=O)N1CC#CCN1CCCC1 (stereo not drawn)	1.5 nM	14 nM	9.4	2 mg/kg	1.7 mg/kg	> 30 mg/kg	> 30 mg/kg	> 30 mg/kg	0.55 mg/kg
